Experimental data reported in patent publication US10168342B2, “Lipid probes and uses thereof” (THE SCRIPPS RESEARCH INSTITUTE, priority 2015, dated 2019).

Key:
Assay in all cases: In situ competitive SILAC profiling with A-DA probe in (PMA-stimulated) A549 cells
Conditions in all cases: A549 cells, A-DA probe
[1] = molecular target: T1, A-DA lipid probe targets in A549 cells (Homo sapiens, UniProt Q7Z2K6)
T1 sequence (Q7Z2K6 1-904): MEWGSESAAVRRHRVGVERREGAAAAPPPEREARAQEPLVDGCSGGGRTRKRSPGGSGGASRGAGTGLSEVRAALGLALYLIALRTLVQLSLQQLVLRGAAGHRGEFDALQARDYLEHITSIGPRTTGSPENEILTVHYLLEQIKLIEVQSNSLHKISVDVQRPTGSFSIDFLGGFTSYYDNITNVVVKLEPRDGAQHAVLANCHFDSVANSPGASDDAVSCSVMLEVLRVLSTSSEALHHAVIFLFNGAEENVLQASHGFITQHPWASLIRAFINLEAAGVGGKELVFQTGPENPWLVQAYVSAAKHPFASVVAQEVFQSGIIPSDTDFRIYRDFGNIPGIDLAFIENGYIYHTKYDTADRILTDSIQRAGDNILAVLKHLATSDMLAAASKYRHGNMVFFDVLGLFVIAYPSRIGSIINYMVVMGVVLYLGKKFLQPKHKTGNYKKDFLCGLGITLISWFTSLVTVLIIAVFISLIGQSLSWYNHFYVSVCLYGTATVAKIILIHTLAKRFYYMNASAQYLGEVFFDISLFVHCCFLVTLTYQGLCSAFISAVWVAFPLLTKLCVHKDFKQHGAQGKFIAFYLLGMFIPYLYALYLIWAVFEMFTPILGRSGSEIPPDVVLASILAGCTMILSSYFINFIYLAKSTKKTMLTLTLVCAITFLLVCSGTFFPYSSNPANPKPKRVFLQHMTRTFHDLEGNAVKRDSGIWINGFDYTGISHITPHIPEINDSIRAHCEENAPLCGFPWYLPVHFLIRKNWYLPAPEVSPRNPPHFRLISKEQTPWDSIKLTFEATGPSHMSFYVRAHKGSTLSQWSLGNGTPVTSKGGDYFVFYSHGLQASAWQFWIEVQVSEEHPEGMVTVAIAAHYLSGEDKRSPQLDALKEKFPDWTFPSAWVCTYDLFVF

[2] = molecular target: T2, A-DA lipid probe targets in A549 cells (Homo sapiens, UniProt Q9BTX1)
T2 sequence (Q9BTX1 1-674): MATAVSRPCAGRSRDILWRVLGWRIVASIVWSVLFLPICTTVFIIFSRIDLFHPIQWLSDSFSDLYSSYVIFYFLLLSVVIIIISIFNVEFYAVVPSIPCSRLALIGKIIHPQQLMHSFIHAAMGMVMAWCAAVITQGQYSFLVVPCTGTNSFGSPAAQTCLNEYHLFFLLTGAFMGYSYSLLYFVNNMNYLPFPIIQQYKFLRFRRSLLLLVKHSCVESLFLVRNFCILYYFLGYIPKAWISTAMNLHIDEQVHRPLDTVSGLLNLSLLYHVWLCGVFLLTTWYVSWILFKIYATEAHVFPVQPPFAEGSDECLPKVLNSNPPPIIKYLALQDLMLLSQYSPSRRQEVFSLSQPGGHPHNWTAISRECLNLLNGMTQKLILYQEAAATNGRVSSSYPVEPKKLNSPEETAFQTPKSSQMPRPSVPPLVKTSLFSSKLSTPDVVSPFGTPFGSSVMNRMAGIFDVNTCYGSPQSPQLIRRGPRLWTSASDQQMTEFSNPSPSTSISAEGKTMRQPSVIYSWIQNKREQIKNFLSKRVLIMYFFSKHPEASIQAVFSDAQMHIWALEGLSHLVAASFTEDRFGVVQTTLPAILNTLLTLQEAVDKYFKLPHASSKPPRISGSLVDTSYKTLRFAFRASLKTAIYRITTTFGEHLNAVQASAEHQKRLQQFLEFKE

[3] = molecular target: T3, A-DA lipid probe targets in A549 cells (Homo sapiens, UniProt O15173)
T3 sequence (O15173 1-223): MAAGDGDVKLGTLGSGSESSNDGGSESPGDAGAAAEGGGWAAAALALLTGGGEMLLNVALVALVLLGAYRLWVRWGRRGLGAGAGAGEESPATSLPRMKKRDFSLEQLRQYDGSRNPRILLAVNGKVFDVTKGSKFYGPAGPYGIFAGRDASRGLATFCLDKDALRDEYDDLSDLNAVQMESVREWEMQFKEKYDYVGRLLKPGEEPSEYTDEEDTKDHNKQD

[4] = molecular target: T4, A-DA lipid probe targets in A549 cells (Homo sapiens, UniProt Q99536)
T4 sequence (Q99536 1-393): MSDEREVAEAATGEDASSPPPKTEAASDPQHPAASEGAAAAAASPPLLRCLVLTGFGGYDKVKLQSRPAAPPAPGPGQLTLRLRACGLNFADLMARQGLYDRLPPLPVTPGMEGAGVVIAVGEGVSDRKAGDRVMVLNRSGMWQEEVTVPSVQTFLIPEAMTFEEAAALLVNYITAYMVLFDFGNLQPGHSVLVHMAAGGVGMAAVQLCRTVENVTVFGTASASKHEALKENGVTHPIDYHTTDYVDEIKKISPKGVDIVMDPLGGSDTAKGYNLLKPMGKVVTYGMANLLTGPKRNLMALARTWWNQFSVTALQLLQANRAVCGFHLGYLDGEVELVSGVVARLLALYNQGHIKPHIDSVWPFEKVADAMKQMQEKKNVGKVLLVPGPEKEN

[5] = molecular target: A-DA lipid probe targets in A549 cells (Homo sapiens, UniProt Q9H6K4)
A-DA lipid probe targets in A549 cells (Homo sapiens, UniProt Q9H6K4), sequence (Q9H6K4 whole entry): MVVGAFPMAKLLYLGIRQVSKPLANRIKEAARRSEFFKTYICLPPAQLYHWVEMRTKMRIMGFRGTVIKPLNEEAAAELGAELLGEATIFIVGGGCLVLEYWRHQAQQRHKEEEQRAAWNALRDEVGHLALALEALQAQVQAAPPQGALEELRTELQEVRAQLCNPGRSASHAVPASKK

## O=C(/C=C/c1cccnc1)NCCCCC1CCN(C(=O)c2ccccc2)CC1 [FK-866, reference compound]
[1]; competitor 25 μM
  SILAC ratio, ERMP1 (Q7Z2K6): 1.6
[2]; competitor 25 μM
  SILAC ratio, TMEM48 (Q8VCB1): 1.2
[3]; competitor 25 μM
  SILAC ratio, PGRMC2 (Q80UU9): 1.2
[4]; competitor 25 μM
  SILAC ratio, VAT1 (Q99536): 4.0
[5]; competitor 25 μM
  SILAC ratio, OPA3 (Q505D7): 1.3

## C=CCN(C)CCCCCCOc1ccc(C(=O)c2ccc(Br)cc2)c(F)c1 [Ro488071]
[1]; competitor 5 μM
  SILAC ratio, ERMP1 (Q7Z2K6): 1.4
[1]; competitor 50 μM
  SILAC ratio, ERMP1 (Q7Z2K6): 3.2
[2]; competitor 5 μM
  SILAC ratio, TMEM48 (Q8VCB1): 1.5
[2]; competitor 50 μM
  SILAC ratio, TMEM48 (Q8VCB1): 2.8
[3]; competitor 5 μM
  SILAC ratio, PGRMC2 (Q80UU9): 1.6
[3]; competitor 50 μM
  SILAC ratio, PGRMC2 (Q80UU9): 2.1
[4]; competitor 5 μM
  SILAC ratio, VAT1 (Q99536): 1.4
[4]; competitor 50 μM
  SILAC ratio, VAT1 (Q99536): 2.5
[5]; competitor 5 μM
  SILAC ratio, OPA3 (Q505D7): 1.8
